According to patent US6562783B2, “Phosphinylmethyl and phosphorylmethyl succinic and glutauric acid analogs as β-secretase inhibitors” (Neurologic, Inc., priority 2001, dated 2003):

Tested on: sAPP secretion
Experiment: Enhancement of sAPP secretion (immunoblot with 6E10 antibody, densitometry)
Format: cell-based, Human
Conditions: compound at 10 μM; FIG. 4
Protocol: Determination of the enhancement of sAPP secretion promoted by LQ-β series of compounds:
Human fibroblasts were obtained from the Coriell Cell Repositories (Camden, N.J.). Four AD cell lines (AG06848, AG04401, AG07377, AG06263) and four age-matched control cell lines (AG07141, AG06241, AG08044, AG04560) were grown to confluence in T75 cell culture flasks. Additional information about these cell lines can be found in the Catalog of Cell Lines from the National Institute of Aging. (National Institute of Aging, Catalog of Cell Lines (1994)). The culture medium was DMEM supplemented with 10% serum (FBS, Gibco). PC12 cells were obtained from the American Cell Culture Collection and grown to confluence in T75 flasks containing DMEM supplemented with 5% FBS (Gibco), 10% horse serum (Biofluids) and 1% of a mixture of penicillin (5,000 units/ml in G sodium) and streptomycin (5,000 μg/ml).
Cells in T-75 were seeded into 100 mm cell culture plates and allowed to grow for 2 days. […]
Conventional immunoblotting techniques were employed. […] Horseradish peroxidase bound signal was detected using an enhanced chemiluminescence followed by exposure to Hyperfilm ECL (Amersham). The band intensities were quantified by densitometric analyses using a BioRad GS-710 Scanning Densitometer and Multianalyst software (BioRad).

Which “effect on sAPP secretion compared to vehicle (DMSO) alone” value does the source give for `O=C(O)CC(CP(=O)(O)O)C(=O)N1CCN(C(=O)OCCOc2ccccc2)CC1` (stereo not shown) [LQ-∃1, 4-(2-Carboxymethyl-3-phosphono-propionyl)-piperazine-1-carboxylic acid 2-phenoxy-ethyl ester] here?
Its value is “marked effect of enhancing secretion”.
